In PubChem BioAssay (NCI) one finds TGI data, which are given here for 3 molecules.

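Five compound concentrations were applied to cells in 96-well plates for 48 hours; endpoints were derived by simple linear interpolation of the resulting dose-response curve. The concentration for full growth arrest is given as TGI.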

Among the test systems are KM12 colon; MDA-MB-435; HCC-2998 colon; HCT-15 colon; T-47D breast; A549 NSCLC; MALME-3M melanoma; SK-OV-3 ovarian; SNB-19 CNS; MDA-MB-231 breast.
What all share (assay): NCI anticancer screen, dose series, 48 h

Turning to `O=c1[nH]cc(Cl)c(=O)[nH]1`, the TGI in the experiment on KM12 colon, in the experiment with MDA-MB-435, in the experiment on HCC-2998 colon, with HCT-15 colon, with T-47D breast and in the experiment with A549 NSCLC was greater than 100 µM in each case. Also, the TGI in the experiment on MALME-3M melanoma, in the experiment on SK-OV-3 ovarian, in the experiment on SNB-19 CNS and in the experiment on MDA-MB-231 breast was greater than 100 µM throughout.
Turning to `Cc1sc2c(c1C)/C(=N\O)c1cccn1-2`, the TGI in the experiment with KM12 colon, in the experiment with MDA-MB-435, with HCC-2998 colon, in the experiment on HCT-15 colon, in the experiment on T-47D breast and with A549 NSCLC was greater than 100 µM each time. Also, the TGI is greater than 100 µM in the experiment with MALME-3M melanoma, greater than 100 µM with SK-OV-3 ovarian, 63.2 µM with SNB-19 CNS and greater than 100 µM with MDA-MB-231 breast.
In the case of `COc1ccc2c3c([nH]c2c1)CCN(CCCC(=O)c1ccc(F)cc1)C3`, the TGI in the experiment with KM12 colon amounted to 34.4 µM; in the experiment on MDA-MB-435, 31 µM; with HCC-2998 colon, 17.7 µM; in the experiment with HCT-15 colon, 36.7 µM; in the experiment with T-47D breast it was 37 µM; in the experiment on A549 NSCLC it was 32.1 µM. Also, the TGI in the experiment on MALME-3M melanoma amounted to 27 µM; with SK-OV-3 ovarian, 36.6 µM; in the experiment with SNB-19 CNS, 28.2 µM; with MDA-MB-231 breast, 31.2 µM.
